This note sets out measurements from ChEMBL document CHEMBL1131044, “Discovery and preclinical pharmacology of a novel, potent, nonsteroidal estrogen receptor agonist/antagonist, CP-336156, a diaryltetrahydronaphthalene” (J Med Chem, 1998).

Series [1] is described as follows: Oral bioavailability in rat. The series is classed as ADME, organism-based. Conditions: in vivo.
The next series deals with Estrogen receptor (Rattus norvegicus, UniProt P06211+Q62986).
The species entered for series [2] is Rattus norvegicus.
Description: In vivo prevention of reduced serum cholesterol in ovariectomised rats on oral administration
The species named for series [3] is Rattus norvegicus. This is another data set of the same source.
Description: In vivo prevention of bone loss in ovariectomised rats on oral administration
Series [4] in a line: Oral bioavailability in cynomolgus monkey. The series is classed as ADME, organism-based, Macaca fascicularis. The conditions noted are these: in vivo.
A further series in a line: in vivo. Conditions: rat, po.

Consider `Oc1ccc2c(c1)CC[C@H](c1ccccc1)[C@H]2c1ccc(OCCN2CCCC2)cc1`, for which the bioavailability in series [1] worked out at 16%. The compound also registered an IC50 against Estrogen receptor of 0.00975 µM.

In the case of `Oc1ccc2c(c1)OC(c1ccc(OCCN3CCCC3)cc1)C(c1ccccc1)=C2` (centres undefined), the ED50 in the series listed under Rattus norvegicus [2] and in the series listed under Rattus norvegicus [3] was 175 µg/day/kg in each case. The compound further came in with a bioavailability in series [1] of 27%. On Estrogen receptor, this compound gave an IC50 of 0.0111 µM.

In the case of `Oc1ccc2c(c1)CC[C@H](c1ccccc1)[C@@H]2c1ccc(OCCN2CCCC2)cc1` (stereo in doubt; 14) [LASOFOXIFENE], the ED50 in the series listed under Rattus norvegicus [2] is 10 µg/day/kg; in the series listed under Rattus norvegicus [3], below 1 µg/day/kg. This compound showed a bioavailability in series [4] of 45%. Further, in series [1], the F amounted to 62%. Besides, the IC50 on Estrogen receptor came out at 0.0113 µM.

Regarding `O=C(c1ccc(OCCN2CCCCC2)cc1)c1c(-c2ccc(O)cc2)sc2cc(O)ccc12` [RALOXIFENE], the ED50 in the series filed under Rattus norvegicus [2] and in the series filed under Rattus norvegicus [3] was 500 µg/day/kg each time. Moreover, the bioavailability in series [4] (read-out: Bioavailabiility) was 5%; in “in vivo” it was 10%.

At Estrogen receptor, `COc1ccc2c(c1)CCC(c1ccccc1)=C2c1ccc(OCCN2CCCC2)cc1` [NAFOXIDINE] registered an IC50 of 0.0409 µM.

Regarding `Oc1ccc2c(c1)CC[C@@H](c1ccccc1)[C@H]2c1ccc(OCCN2CCCC2)cc1`, the ED50 in the series listed under Rattus norvegicus [2] and in the series listed under Rattus norvegicus [3] was above 500 µg/day/kg in each case. Further, the bioavailability in series [1] worked out at 29%. Further, at Estrogen receptor, the IC50 was found to be 0.27 µM.

Take `Oc1ccc2c(c1)CCC(c1ccccc1)=C2c1ccc(OCCN2CCCC2)cc1`: the IC50 on Estrogen receptor was determined as 0.0471 µM.

Compound `Oc1ccc2c(c1)CC[C@H](c1ccccc1)[C@@H]2c1ccc(OCCN2CCCC2)cc1` (stereo in doubt; 9) [LASOFOXIFENE] had a bioavailability in series [1] of 60%. At Estrogen receptor, this compound came in with an IC50 of 0.0111 µM.

Turning to `COc1ccc2c(c1)CCC(c1ccccc1)C2c1ccc(OCCN2CCCC2)cc1` (centres undefined), the IC50 at Estrogen receptor worked out at 0.132 µM.

In general, IC50 refers to the concentration that inhibits the measured activity by half. A lower IC50 goes with greater potency. One may read the ED50 as the midpoint of the dose-response relation.
